Laboratory results reported in paper PMC10799935, “Discovery of a peripheral 5HT2A antagonist as a clinical candidate for metabolic dysfunction-associated steatohepatitis” (Nature Communications, 2024).
Several values for one entry are separate records, joined by “and”; a condition that tells them apart may be missing. Equal values may be shown once. Entries after “also recorded” stand apart in the source; their conditions may differ.

Legend:
5HT6 (h) = biological target: T1, 5HT6 (h) (Homo sapiens, UniProt P50406); test: 5HT subtype antagonism assay (Eurofins Cerep): 5HT6; assay type: cell-based; details: concentration not given
T1 construct: host or cells: CHO cells

HFD-fed C57BL/6J mice = test: DIO mice: quantification of hepatic triglyceride; assay type: in vivo, mouse; details: DIO mice; for Hepatic TG levels, Mean Diff. (Vehicle vs. treated): Dunnett's multiple comparisons test; for Hepatic TG Levels, TG per protein, group mean: PO, liver
Procedure: Liver tissues were homogenized in 5% NP-40 using FastPrep-24. To solubilize fat, the homogenates were heated to 95 °C for 5 min and cooled at 23 °C, and repeated. Triglyceride Reagent (Sigma-Aldrich) or DW was added and incubated at 37 °C for 30 min to hydrolyze TG into glycerol. For the colorimetric assay of hydrolyzed TG levels, samples were incubated with Free Glycerol Reagent (Sigma-Aldrich) at 37 °C for 5 min. Differences in absorbance at 540 nm between hydrolyzed or non-hydrolyzed TG were quantified using a glycerol standard (Sigma-Aldrich). […]

α-SMA = test: CDAHFD mice: α-SMA immunohistochemical staining; assay type: in vivo, mouse; design: α-SMA immunohistochemical staining (a-SMA area), individual mouse / α-SMA immunohistochemical staining (a-SMA area), Average: unit not given here; details: for α-SMA immunohistochemical staining (a-SMA area), Average / α-SMA immunohistochemical staining (a-SMA area), individual mouse: CDAHFD mice; for α-SMA immunohistochemical staining (a-SMA area), Average: group average n=5, CDAHFD+Vehicle 6.348, Vehicle 0.808; for α-SMA immunohistochemical staining (a-SMA area), individual mouse: individual animals No. 1-5 (Fig.4f)
Text: (§1) C57BL/6 J male mice were purchased from the Japan SLC. Inc (Hamamatsu, Japan). Mice (5 weeks old) were fed Teklad Certitied Irradiated Global 18% protein rodent diet purchased from Dooyeol Biotech Co. Ltd (Seoul, South Korea) during the acclimation period. The liver fibrosis/inflammation-induced groups were CDAHFD-fed (A06071302, Research diet). […] All animal experiments complied with the relevant ethical regulations.
(§2) Mouse liver tissues were fixed in 4% formalin solution (Sigma–Aldrich, St. Louis, MO, USA) and embedded in paraffin. 4-μm-thick liver sections were deparaffinized in xylene, and rehydrated through descending grades of ethanol. To evaluate liver fibrosis, sections were stained with Sirius red solution and subjected to immunohistochemical staining. Tissue sections, after deparaffinization, underwent a 16-hour incubation in a solution containing 0.1% Direct Red 80 (365548, Sigma-Aldrich) dissolved in Picric acid (P-201, Spectrum Chemical, CA, USA) for Sirius red staining. The sections were briefly immersed in a 0.01 N HCl solution (1129, Ducksan, Republic of Korea) for 2 min. and then rinsed with distilled water for destaining. Subsequently, the sections underwent dehydration through […] grades of ethanol. Immunohistochemical staining was performed using the Polyview Plus HRP-DAB (anti-Rabbit) Kit (ENZ-KIT159-0150, ENZO Life Science, NY, USA) following the manufacturers’ instructions. Deparaffinized sections were boiled in IHC-TekTM Epitope Retrieval solution (IW-1100, IHCWORLD, MD, USA) for 45 min., cooled for 1 h, incubated in a 3% H2O2 solution (69355-0350, JUNSEI, Japan) for 15 min., washed, and then incubated overnight with primary antibodies (α-SMA, ab5694, Abcam, 1:500 dilution; TNF-α, ab6671, Abcam, 1:100 dilution and IL-1β, ab9722, Abcam, 1:100 dilution). Subsequently, the sections were treated with Polyview Plus HRP for 2 h and developed with DAB chromogen/substrate. Stained […] sections were confirmed by light microscopy (Olympus BX53 upright microscope, Tokyo, Japan). The degree of hepatic fibrosis and immunohistochemical staining was quantified by morphometric analysis of stained liver sections using NIH ImageJ software.

IL-1β = test: CDAHFD mice: IL-1β immunohistochemical staining; assay type: in vivo, mouse; design: IL-1β immunohistochemical staining (IL1b area), individual mouse / IL-1β immunohistochemical staining (IL1b area), Average: unit not given here; details: for IL-1β immunohistochemical staining (IL1b area), Average / IL-1β immunohistochemical staining (IL1b area), individual mouse: CDAHFD mice; for IL-1β immunohistochemical staining (IL1b area), Average: group average n=4, CDAHFD+Vehicle 8.870, Vehicle 2.958; for IL-1β immunohistochemical staining (IL1b area), individual mouse: individual animals No. 1-4 (Fig.4h)
Text: as §1, §2

[1] = Phase 1 clinical trial, SAD (single ascending dose) study; details: human, in vivo
CYP2C19 = CYP2C19 (Homo sapiens, UniProt P33261); test: in vitro
in vitro [2] = details: mouse
in vitro [3] = details: mouse; remark: listed apart in the source
[4] = CDAHFD-fed 11c vs CDAHFD-fed vehicle group

T1 sequence (P50406 whole entry): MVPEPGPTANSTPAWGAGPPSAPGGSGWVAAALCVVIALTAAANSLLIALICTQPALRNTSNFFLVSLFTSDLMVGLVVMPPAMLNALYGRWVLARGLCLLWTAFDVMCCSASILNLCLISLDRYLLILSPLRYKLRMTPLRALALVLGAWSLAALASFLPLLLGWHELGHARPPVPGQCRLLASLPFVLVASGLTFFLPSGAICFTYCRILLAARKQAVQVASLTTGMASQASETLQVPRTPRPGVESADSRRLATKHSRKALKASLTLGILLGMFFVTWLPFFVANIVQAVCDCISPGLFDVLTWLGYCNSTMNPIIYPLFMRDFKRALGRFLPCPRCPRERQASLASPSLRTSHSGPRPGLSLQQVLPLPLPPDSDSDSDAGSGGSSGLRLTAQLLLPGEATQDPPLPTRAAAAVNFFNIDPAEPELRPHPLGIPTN
CYP2C19, sequence (P33261 whole entry): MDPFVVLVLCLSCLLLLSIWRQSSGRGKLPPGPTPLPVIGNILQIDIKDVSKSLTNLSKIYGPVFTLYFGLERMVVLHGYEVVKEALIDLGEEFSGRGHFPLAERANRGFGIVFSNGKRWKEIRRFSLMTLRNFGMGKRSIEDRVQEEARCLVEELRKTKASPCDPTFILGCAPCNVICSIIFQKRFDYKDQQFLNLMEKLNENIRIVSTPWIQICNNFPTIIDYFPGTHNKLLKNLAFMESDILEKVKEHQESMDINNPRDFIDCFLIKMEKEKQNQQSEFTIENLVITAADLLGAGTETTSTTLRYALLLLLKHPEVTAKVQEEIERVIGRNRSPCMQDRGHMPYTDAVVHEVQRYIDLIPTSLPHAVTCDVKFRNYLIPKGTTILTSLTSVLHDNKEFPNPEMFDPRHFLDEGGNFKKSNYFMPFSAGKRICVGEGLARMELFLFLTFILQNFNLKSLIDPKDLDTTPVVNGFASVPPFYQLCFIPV

Cc1nc2n(c(=O)c1CCN1CCC(=C3c4ccc(Cl)cc4CCc4cccnc43)CC1)CCCC2O (centres unmarked) [Compound 11c]
Selectivity 6: % inhibition (5HT6 (h)): 7% | Hepatic TG levels, Mean Diff. (Vehicle vs. treated) (HFD-fed C57BL/6J mice; 5mpk): 5.95 mg/g protein | Hepatic TG levels, Mean Diff. (Vehicle vs. treated) (HFD-fed C57BL/6J mice; 10mpk): 31.37 mg/g protein | Hepatic TG Levels, TG per protein, group mean (HFD-fed C57BL/6J mice; 5mpk): 79.94 mg/g protein | Hepatic TG Levels, TG per protein, group mean (HFD-fed C57BL/6J mice; 10mpk): 54.51 mg/g protein | hepatic TG concentration (HFD-fed C57BL/6J mice; vs vehicle): significant reduction; also recorded: decreased | α-SMA immunohistochemical staining (a-SMA area), Average (α-SMA; 11c 5 mpk): 2.563 | α-SMA immunohistochemical staining (a-SMA area), individual mouse (α-SMA; 11c 5 mpk): 2.929 and 2.447 and 3.505 and 2.773 and 1.159 | α-SMA immunohistochemical staining (a-SMA area), Average (α-SMA; 11c 10mpk): 3.310 | α-SMA immunohistochemical staining (a-SMA area), individual mouse (α-SMA; 11c 10mpk): 3.665 and 3.079 and 3.824 and 3.446 and 2.538 | α-SMA expression (immunohistochemical staining) (α-SMA; [4]): significant decrease | IL-1β immunohistochemical staining (IL1b area), Average (IL-1β; 11c 5 mpk): 4.503 | IL-1β immunohistochemical staining (IL1b area), individual mouse (IL-1β; 11c 5 mpk): 6.500 and 6.265 and 2.688 and 2.559 | IL-1β immunohistochemical staining (IL1b area), Average (IL-1β; 11c 10mpk): 3.142 | IL-1β immunohistochemical staining (IL1b area), individual mouse (IL-1β; 11c 10mpk): 2.228 and 4.531 and 2.370 and 3.440 | IL-1β expression (immunohistochemical staining) (IL-1β; [4]): significant decrease | half-life [1]: > 10 h | inhibition at 10 µM (CYP2C19): 6.83% | IC50 (in vitro [2]): > 100 µM | IC50 (in vitro [3]): > 100 µM
